Data on 4 compounds can be found in patent publication US8999966B2, “Compounds that are ERK inhibitors” (Merck Sharp & Dohme Corp., priority 2010, dated 2015).

Sequence of fully phosphorylated, active Mouse ERK2 protein (P63085 whole entry): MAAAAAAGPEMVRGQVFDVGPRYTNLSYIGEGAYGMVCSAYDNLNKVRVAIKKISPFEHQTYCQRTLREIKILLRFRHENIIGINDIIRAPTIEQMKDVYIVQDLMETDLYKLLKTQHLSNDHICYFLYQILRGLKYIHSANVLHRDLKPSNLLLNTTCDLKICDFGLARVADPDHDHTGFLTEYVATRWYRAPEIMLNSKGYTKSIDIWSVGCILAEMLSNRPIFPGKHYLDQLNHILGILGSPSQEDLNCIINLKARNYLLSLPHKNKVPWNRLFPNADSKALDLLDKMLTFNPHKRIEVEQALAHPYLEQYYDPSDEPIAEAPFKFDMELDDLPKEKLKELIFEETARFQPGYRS

The assay concerns the target fully phosphorylated, active Mouse ERK2 protein (Mus musculus, UniProt P63085). As to the kind of experiment: Active ERK2 assay (AERK2), IMAP format. It counts as biochemical. The settings on record: activated ERK2, IMAP fluorescence polarization, 30 μM ATP. (In general: In fluorescence polarisation assays a small probe gives low polarisation when free and higher when bound to something large.)
As to `c1cc(CN2CCC[C@@H](c3nnc(-c4ccc5[nH]nc(-c6ccc7occc7c6)c5c4)o3)C2)ncn1` [Example 351, 3-(5-BENZOFURANYL)-5-[5- [1-(4- PYRIMIDINYLMETHYL)- 3(R)-PIPERIDINYL]-1,3,4- OXADIAZOL-2-YL]-1H- INDAZOLE], the concentration for half-maximal inhibition (IC50) (in general, the concentration needed to halve the response being measured) is over 1000 nM.

`Cn1cc2cc(-c3n[nH]c4ccc(-c5nnc([C@@H]6CCCN(Cc7cc8ccccc8n7C)C6)o5)cc34)ccc2n1` [Example 321, 3-(2-METHYL-2H-INDAZOL- 5-YL)-5-[5-[1-[(1-METHYL- 1H-INDOL-2-YL)METHYL]- 3(R)-PIPERIDINYL]-1,3,4- OXADIAZOL-2-YL]-1H- INDAZOLE] returned a half-maximal inhibitory concentration (IC50) of over 1000 nM.

Take `Clc1cc(-c2n[nH]c3ccc(-c4nnc([C@@H]5CCCN(Cc6ccncn6)C5)o4)cc23)ccn1` [Example 360, 3-(2-CHLORO-4-PYRIDINYL)- 5-[5-[1-(4- PYRIMIDINYLMETHYL)- 3(R)-PIPERIDINYL]-1,3,4- OXADIAZOL-2-YL]-1H- INDAZOLE]: the IC50 is at least 504 nM.

Regarding `C1=CCN(Cc2ccon2)[C@@H](c2nc(-c3ccc4[nH]nc(-c5ccc6c(c5)CCO6)c4c3)n[nH]2)C1` [Example 256, 3-(2,3-DIHYDRO-5- BENZOFURANYL)-5-[5- [1,2,3,6-TETRAHYDRO-1-(3- ISOXAZOLYLMETHYL)-2(R)- PYRIDINYL]-1H-1,2,4- TRIAZOL-3-YL]-1H- INDAZOLE], the IC50 was at least 504 nM.
